Patent US10111846B2, “S isomers of alpha-methyl-hydrocinnamic acid for the treatment of blood disorders” (priority 2009, dated 2018)
“And” between values parts separate entries of the source, which are not always exact repeats. Identical values can stand only once.

How the values were obtained:
[1] = system: sub-lethally irradiated mouse model; experiment: Sub-lethally irradiated (6 Gy) mouse model, ANC; format: in vivo, mice; conditions: 500 mg/kg IP and 300 mg/kg IP after 6 Gy irradiation on day 0
Experimental: FIG. 9 is a graph of absolute neutrophil count (ANC) response to NaST7 (500 mg/kg IP and 300 mg/kg IP) after sub-lethal does of irradiation where mice were exposed to 6 Gy irradiation on day 0 and daily ST7 (enantiomer) was administered at two doses, beginning day 1.
In particular, absolute neutrophil count (ANC) increased after administration of NaST7 (500 mg/kg IP and 300 mg/kg IP) after sub-lethal does of irradiation (e.g., exposure to 6 Gy irradiation on day 0).

pH solubility profile [2] = format: physicochemical
Experimental: Sodium a-methyl hydrocinnamate was added to DI water in excess to determine the saturation solubility in water. The samples (n=3) were shaken and vortexed for about two hours to dissolve sodium a-methyl hydrocinnamate. […] The pH of the saturated solution was determined to be about 10.4.
The pH of the saturated aqueous solution was successively adjusted to pH values of 8, 7, 6, and 5 using 50% v/v phosphoric acid to determine the saturation solubility of each pH. To determine the saturation solubility at each pH, the aqueous layer obtained at each pH was diluted further in water and analyzed by UV. The pH solubility data and plot are presented in Table 1 and FIG. 13A, respectively.

pH stability profile = format: physicochemical; conditions: for Assay, initial: unit assumed; for Assay, 1 Week 60° C. / Assay, 1 Week RT: in % (unit assumed)
Experimental: The pH stability profile was determined at pH values of 2, 5, 6, 7, 8, 9, and 13 respectively. A pH 7 phosphate buffer at a buffer concentration of 100 mM was initially prepared. Six different aliquots of this buffer were successively adjusted to pH values of 2, […], 6, 8, 9, and 13 using either 50% v/v phosphoric acid or 1N sodium hydroxide solution. Transferred 0.2 mL of sodium α-methyl hydrocinnamate stock solution and 1 mL of alcohol into a 10.0 mL volumetric flask was made up the volume with each of the seven buffer solutions to yield a final concentration of ˜4 mg/ml of sodium α-methyl hydrocinnamate.
Diluted 0.5 ml of each solution to 5 mL with diluent and analysed by HLPC per AM-013-RO to determine the initial concentration of sodium α-methyl hydrocinnamate. The solution was divided into two parts, one part was kept at room temperature (RT) and the other part was kept at 60° C. to evaluate the stability of sodium α-methyl hydrocinnamate.

[3] = Solubility in pH 4.7 acetate buffer; format: physicochemical; conditions: pH 4.7 acetate buffer (per USP), about 100 mg/mL
Experimental: The sodium α-methyl hydrocinnamate was added to pH 4.7 acetate buffer (per USP) at a concentration of about 100 mg/mL.

[4] = Solubility in citrate buffer containing 30% cyclodextrin; format: physicochemical
Experimental: Solubility of sodium a-methyl hydrocinnamate and buffer capacity of pH 5 citrate buffers prepared at four different buffer concentrations were evaluated as presented in Table 3.

[5] = Solubility in phosphate buffer containing 20% cyclodextrin; format: physicochemical; conditions: for Final pH (upon addition of drug): 250 mg/mL
Experimental: Phosphate buffer solutions at a target pH of 7 were prepared at buffer concentrations of 0.5M, 0.25M, and ˜0.1M, respectively. The buffer solutions contained 20% cyclodextrin.

pH solubility profile [6] = format: physicochemical; conditions: 200 mg/mL
[7] = buffer pH 4*, pH 5* on addition of drug

Compound: CC(Cc1ccccc1)C(=O)[O-].[Na+] (stereo not drawn) [sodium α-methyl hydrocinnamate]
- absolute neutrophil count (ANC) [1]: increased
- saturation solubility in water (pH solubility profile [2]; DI water, n=3): 655 mg/mL
- Solubility, mg/mL, Average (pH solubility profile [2]; pH (average) 5): 2.2 mg/mL
- Solubility, mg/mL, Average (pH solubility profile [2]; pH (average) 6): 2.8 mg/mL
- Solubility, mg/mL, samples 1, 2, 3 (pH solubility profile [2]; pH (average) 6): 2.7 mg/mL and 3.6 mg/mL and 2.2 mg/mL
- Appearance (pH solubility profile [2]; pH (average) 7): Turbid solution
- Solubility, mg/mL, Average (pH solubility profile [2]; pH (average) 7): 559.0 mg/mL
- Solubility, mg/mL, samples 1, 2, 3 (pH solubility profile [2]; pH (average) 7): 653.5 mg/mL and 579.7 mg/mL and 443.8 mg/mL
- Appearance (pH solubility profile [2]; pH (average) 8): Clear solution
- Solubility, mg/mL, Average (pH solubility profile [2]; pH (average) 8): 653.3 mg/mL
- Solubility, mg/mL, samples 1, 2, 3 (pH solubility profile [2]; pH (average) 8): 660.8 mg/mL and 663.6 mg/mL and 635.7 mg/mL
- Appearance (pH solubility profile [2]; pH (average) 10): Clear solution
- Solubility, mg/mL, Average (pH solubility profile [2]; pH (average) 10): 655.1 mg/mL
- Solubility, mg/mL, samples 1, 2, 3 (pH solubility profile [2]; pH (average) 10): 631.7 mg/mL and 700.4 mg/mL and 633.3 mg/mL
- solubility in aqueous solution (pH solubility profile [2]; pH values of 7 and below): almost insoluble
- pH of the saturated solution (pH solubility profile [2]; water): about 10.4
- pH, 1 Week 60° C. (pH stability profile; buffer pH 2): 1.9
- pH, 1 Week RT (pH stability profile; buffer pH 2): 2.2
- Assay, initial (pH stability profile; buffer pH 2, ~4 mg/ml): 95.8%
- Assay, 1 Week 60° C. (pH stability profile; buffer pH 2): 81.2
- Assay, 1 Week RT (pH stability profile; buffer pH 2): 99.8
- pH, 1 Week 60° C. (pH stability profile; [7]): 5.1
- pH, 1 Week RT (pH stability profile; [7]): 5.3
- Assay, 1 Week 60° C. (pH stability profile; [7]): 102.3
- Assay, 1 Week RT (pH stability profile; [7]): 102.9
- Assay, initial (pH stability profile; [7]): 98.8%
- pH, 1 Week 60° C. (pH stability profile; buffer pH 6): 6.0
- pH, 1 Week RT (pH stability profile; buffer pH 6): 6.3
- Assay, 1 Week 60° C. (pH stability profile; buffer pH 6): 102.9
- Assay, 1 Week RT (pH stability profile; buffer pH 6): 102.9
- Assay, initial (pH stability profile; buffer pH 6): 97.2%
- pH, 1 Week 60° C. (pH stability profile; buffer pH 7): 6.9
- pH, 1 Week RT (pH stability profile; buffer pH 7): 7.2
- Assay, 1 Week 60° C. (pH stability profile; buffer pH 7): 99.6
- Assay, 1 Week RT (pH stability profile; buffer pH 7): 100.7
- Assay, initial (pH stability profile; buffer pH 7): 94%
- pH, 1 Week 60° C. (pH stability profile; buffer pH 8): 8.1
- pH, 1 Week RT (pH stability profile; buffer pH 8): 8.3
- Assay, 1 Week 60° C. (pH stability profile; buffer pH 8): 100.8
- Assay, 1 Week RT (pH stability profile; buffer pH 8): 100.4
- Assay, initial (pH stability profile; buffer pH 8): 97.9%
- pH, 1 Week 60° C. (pH stability profile; buffer pH 9): 9.0
- pH, 1 Week RT (pH stability profile; buffer pH 9): 9.2
- Assay, 1 Week 60° C. (pH stability profile; buffer pH 9): 101.6
- Assay, 1 Week RT (pH stability profile; buffer pH 9): 102.2
- Assay, initial (pH stability profile; buffer pH 9): 98.8%
- pH, 1 Week 60° C. (pH stability profile; buffer pH 13): 12.7
- pH, 1 Week RT (pH stability profile; buffer pH 13): 12.8
- Assay, 1 Week 60° C. (pH stability profile; buffer pH 13): 12.9
- Assay, 1 Week RT (pH stability profile; buffer pH 13): 11.2
- Assay, initial (pH stability profile; buffer pH 13): 23.2%
- degradation (pH stability profile; pH 2 solution stored for 1 week at 60° C.): About 20%
- degradation (pH stability profile; pH 13, initially): About 80%
- degradation (pH stability profile; pH 13, storage for 1 week at both room temperature and 60° C.): 90%
- time stable (pH stability profile; pH range of 2-9 at room temperature): at least 1 week
- stability (pH stability profile; pH range of 5 to 9 when stored at 60° C.): stable for at least one week
- behaviour in acetate buffer [3]: observed to separate from the aqueous layer
- change of pH of buffer solution upon addition of target concentration ([4]; 0.25M and 0.1M citrate buffer, 30% Trappsol): 1.5-2 units
- solubility in citrate buffers of high concentrations ([4]; 0.5M and 1 M): not soluble
- Solubility (appearance) ([4]; citrate buffer 0.1 M, 30% Captisol, initial pH 4.9, 100 mg/ml): Clear
- Solubility (appearance) ([4]; citrate buffer 0.1 M, 30% Captisol, initial pH 4.9, 250 mg/ml): Clear
- pH ([4]; citrate buffer 0.1 M, 30% Captisol, initial pH 4.9, after addition of drug): 7.3
- Solubility (appearance) ([4]; citrate buffer 0.1 M, 30% Trappsol, initial pH 5.1, 100 mg/ml): Clear
- Solubility (appearance) ([4]; citrate buffer 0.1 M, 30% Trappsol, initial pH 5.1, 250 mg/ml): Clear
- pH ([4]; citrate buffer 0.1 M, 30% Trappsol, initial pH 5.1, after addition of drug): 7.0
- Solubility (appearance) ([4]; citrate buffer 0.25 M, 30% Trappsol, initial pH 5.1, 100 mg/ml): Clear
- Solubility (appearance) ([4]; citrate buffer 0.25 M, 30% Trappsol, initial pH 5.1, 250 mg/ml): Clear
- pH ([4]; citrate buffer 0.25 M, 30% Trappsol, initial pH 5.1, after addition of drug): 6.5
- Solubility (appearance) ([4]; citrate buffer 1.0, 0.5, 0.25 M, 30% Captisol, initial pH 4.9, 100 mg/ml): Insoluble
- Solubility (appearance) ([4]; citrate buffer 1.0, 0.5 M, 30% Trappsol, initial pH 5.1, 100 mg/ml): Insoluble
- solubility in phosphate buffer solutions ([5]; 0.5M, 0.25M, ~0.1M, 20% cyclodextrin, target formulation concentration): observed to dissolve at the target formulation concentration
- Final pH (upon addition of drug) ([5]; phosphate buffer 0.25 M, 20% Captisol, initial pH 6.3): 7.0
- Final pH (upon addition of drug) ([5]; phosphate buffer 0.25 M, 20% Trappsol, initial pH 6.3): 6.8
- Final pH (upon addition of drug) ([5]; phosphate buffer 0.5 M, 20% Captisol, initial pH 6.2): 6.8
- Final pH (upon addition of drug) ([5]; phosphate buffer 0.5 M, 20% Trappsol, initial pH 6.3): 6.7
- Final pH (upon addition of drug) ([5]; phosphate buffer ~0.1 M, 20% Captisol, initial pH 6.8): 7.9
- Final pH (upon addition of drug) ([5]; phosphate buffer ~0.1 M, 20% Trappsol, initial pH 6.8): 7.6
- pH of aqueous solution (pH solubility profile [6]): about 10
